Reference: US20250333397A1 (REMIX THERAPEUTICS INC., priority 2021, published 2025)
Where two headings read alike, the source gives them in different places.

How the values were obtained:
Assay type in all cases: cell-based, human
HTT mRNA = test: RT-qPCR splicing assay, HTT canonical (CJ) and alternative (AJ) junction mRNA; conditions: for AC50: read-out: HTT AJ (AC50, increase in AJ mRNA)
Protocol: (§1) Compounds described herein were used to modulate RNA transcript abundance in cells. The expression of a target mRNA was measured by detecting the formation of an exon-exon junction in the canonical transcript (CJ). A compound mediated exon-inclusion event was detected by observing an increase in formation of a new junction with an alternative exon (AJ). Real-time qPCR assays were used to detect these splicing switches and interrogate the potency of various compounds towards different target genes. A high-throughput real time quantitative PCR (RT-qPCR) assay was developed to measure these two isoforms of the mRNA (CJ and AJ) for exemplary genes, such as HTT, SMN2, and MYB, together with a control housekeeping gene, GAPDH or GUSB or PPIA, used for normalization. Briefly, the A673 or K562 cell line was treated with various compounds described herein (e.g., compounds of Formula (I), (II), (III), (IV)). After treatment, the levels of the HTT, MYB, or SMN2 mRNA targets were determined from each sample of cell lysate by cDNA synthesis followed by qPCR.
(§2) The A673 cell line was cultured in DMEM with 10% FBS. Cells were diluted with full growth media and plated in a 96-well plate (15,000 cells in 100ul media per well). The plate was incubated at 37° C. with 5% CO2 for 24 hours to allow cells to adhere. An 11-point 3-fold serial dilution of the compounds was made in DMSO then diluted in media in an intermediate plate. Compounds were transferred from the intermediate plate to the cell plate with the top dose at a final concentration of 10 uM in the well. Final DMSO concentration was kept at or below 0.25%. The cell plate was returned to the incubator at 37° C. with 5% CO2 for an additional 24 hours.
(§3) The K562 cell line was cultured in IMDM with 10% FBS. For K562, cells were diluted with full growth media and plated in either a 96-well plate (50,000 cells in 50 uL media per well) or a 384-well plate (8,000-40,000 cells in 45 uL media per well). An 11-point 3-fold serial dilution of the compounds were made in DMSO then diluted in media in an intermediate plate.
(§4) Compound was transferred from the intermediate plate to the cell plate with the top dose at a final concentration of 10 uM in the well. Final DMSO concentration was kept at or below 0.25%.
(§5) Final volume was 100 uL for 96-well plate and 50 uL for 384-well plate. The cell plate was then placed in an incubator at 37° C. with 5% CO2 for 24 hours.
(§6) The cells were then gently washed with 50 uL-100 uL cold PBS before proceeding to addition of lysis buffer. 30 uL-50 μL of room temperature lysis buffer with DNAse I (and optionally RNAsin) was added to each well. Cells were shaken/mixed thoroughly at room temperature for 5-10 minutes for lysis to take place and then 3 uL-5 μL of room temperature stop solution was added and wells were shaken/mixed again. After 2-5 minutes, the cell lysate plate was transferred to ice for RT-qPCR reaction setup. The lysates could also be frozen at −80° C. for later use.
(§7) In some cases, a direct lysis buffer was used. An appropriate volume of 3× lysis buffer (10 mM Tris, 150 mM NaCl, 1.5%-2.5% Igepal and 0.1-1 U/uL RNAsin, pH 7.4) was directly added to either K562 or A673 cells in media and mixed by pipetting 3 times. The plates were then incubated at room temperature with shaking/rocking for 20-50 minutes to allow for lysis to take place. After this time, the cell lysate plate was transferred to ice to set up for the RT-qPCR reactions. The lysates could also be frozen at −80° C. for later use.
(§8) To set up 10 uL RT-qPCR reactions, cell lysates were transferred to 384-well qPCR plates containing the master mix according to the table below. The plates were sealed, gently vortexed, and spun down before the run. The volumes were adjusted accordingly in some instances where the reaction was carried in 20 μL. The table below summarizes the components of the RT-qPCR reactions: […]

MYB mRNA = test: RT-qPCR splicing assay, MYB canonical (CJ) and alternative (AJ) junction mRNA; conditions: for AC50: read-out: MYB AJ (AC50, increase in AJ mRNA)
Protocol: as §1, §2, §3, §4, §5, §6, §7, §8

SMN2 mRNA = test: RT-qPCR splicing assay panel, SMN2 canonical junction (CJ) mRNA; conditions: canonical junction (CJ) mRNA, RT-qPCR panel, Table 4A, read-out: SMN2, decrease in CJ mRNA levels, IC50
Protocol: as §1, §2, §3, §4, §5, §6, §7, §8

Target C mRNA = test: RT-qPCR splicing assay panel, Target C canonical junction (CJ) mRNA; conditions: canonical junction (CJ) mRNA, RT-qPCR panel, Table 4A, read-out: Target C, decrease in CJ mRNA levels, IC50
Protocol: as §1, §2, §3, §4, §5, §6, §7, §8

[1] = Homo sapiens, 24 h, Table 3A, A673 or K562 cells, 24 h treatment
[2] = Homo sapiens, 24 h, Table 3A, A673 or K562 cells, 24 h treatment, read-out: HTT CJ (IC50, decrease in CJ mRNA)
[3] = Homo sapiens, canonical junction (CJ) mRNA, RT-qPCR panel, Table 4A, read-out: HTT, decrease in CJ mRNA levels, IC50
[4] = Homo sapiens, 24 h, Table 3A, A673 or K562 cells, 24 h treatment, read-out: MYB CJ (IC50, decrease in CJ mRNA)
[5] = Homo sapiens, canonical junction (CJ) mRNA, RT-qPCR panel, Table 4A, read-out: MYB, decrease in CJ mRNA levels, IC50
[6] = Table 3A, A673 or K562 cells, 24 h treatment
[7] = Table 3A, A673 or K562 cells, 24 h treatment, read-out: HTT CJ (IC50, decrease in CJ mRNA)
[8] = Table 3A, A673 or K562 cells, 24 h treatment, read-out: MYB CJ (IC50, decrease in CJ mRNA)

SMILES	IC50 (HTT mRNA; [2]) [nM]	IC50 (HTT mRNA; [3]) [nM]	IC50 (MYB mRNA; [4]) [nM]	IC50 (MYB mRNA; [5]) [nM]	IC50 (SMN2 mRNA; Homo sapiens) [nM]	IC50 (Target C mRNA; Homo sapiens) [nM]	AC50 (HTT mRNA; [1]) [nM]	AC50 (MYB mRNA; [1]) [nM]	other results
Oc1cc(-c2cnnc(C3CC3)c2)ccc1-c1ccc(N2CC[C@H](NC3CCC3)C2)nn1 [Compound 280]	1000 to 10000	1000 to 10000	1000 to 10000	1000 to 10000	100 to 1000	> 10000	1000 to 10000	> 10000	
Oc1cc(-c2cn[nH]c2)ccc1-c1ccc(N2CC[C@H](NC3CCC3)C2)nn1 [Compound 116, 2-{6-[(3S)-3-(cyclobutylamino)pyrrolidin-1-yl]pyridazin-3-yl}-5-(1H-pyrazol-4-yl)phenol]	< 100	< 100	100 to 1000	100 to 1000	< 100	< 100	< 100	100 to 1000	
COc1cc(-c2ccc(-c3ccc(N4CC[C@@H](NC5CC5)C4)nn3)c(O)c2)cnn1 [Compound 216, 2-{6-[(3R)-3-(cyclopropylamino)pyrrolidin-1-yl]pyridazin-3-yl}-5-(6-methoxypyridazin-4-yl)phenol]	< 100	< 100	100 to 1000	100 to 1000	< 100	100 to 1000	100 to 1000	100 to 1000	
COc1cc(-c2ccc(-c3cc(C)c(N4CC[C@H](NC5CCC5)C4)nn3)c(O)c2)cnn1 [Compound 449, 2-{6-[(3S)-3-(cyclobutylamino)pyrrolidin-1-yl]-5-methylpyridazin-3-yl}-5-(6-methoxypyridazin-4-yl)phenol]	100 to 1000	100 to 1000	100 to 1000	100 to 1000	< 100	1000 to 10000	100 to 1000	100 to 1000	
Oc1cc(-c2cn[nH]c2)ccc1-c1ccc(N2CCC(NC3CC3)C2)nn1 (centres unmarked) [Compound 102, 2-(6-(3-(cyclopropylamino)pyrrolidin-1-yl)pyridazin-3-yl)-5-(1H-pyrazol-4-yl)phenol]									AC50 (HTT mRNA; [6]): > 10000 nM; IC50 (HTT mRNA; [7]): > 10000 nM; IC50 (HTT mRNA; canonical junction (CJ) mRNA, RT-qPCR panel, Table 4A, read-out: HTT, decrease in CJ mRNA levels, IC50): > 10000 nM; AC50 (MYB mRNA; [6]): > 10000 nM; IC50 (MYB mRNA; [8]): > 10000 nM; IC50 (MYB mRNA; canonical junction (CJ) mRNA, RT-qPCR panel, Table 4A, read-out: MYB, decrease in CJ mRNA levels, IC50): > 10000 nM; IC50 (SMN2 mRNA): 1000 to 10000 nM; IC50 (Target C mRNA): > 10000 nM
Cc1ncc(-c2cc(O)c(-c3ccc(N4CC[C@H](N[C@H](C)C5CC5)C4)nn3)cc2F)s1 [Compound 394]									IC50 (HTT mRNA; [7]): < 100 nM; AC50 (MYB mRNA; [6]): < 100 nM; IC50 (MYB mRNA; [8]): < 100 nM; IC50 (SMN2 mRNA): < 100 nM
COc1cc(-c2ccc(-c3ccc(N4CC[C@H](NC5(CF)CC5)C4)nn3)c(O)c2)cnn1 [Compound 241, 2-{6-[(3S)-3-{[1-(fluoromethyl)cyclopropyl]amino}pyrrolidin-1-yl]pyridazin-3-yl}-5-(6-methoxypyridazin-4-yl)phenol]	< 100		100 to 1000				100 to 1000	100 to 1000	
Cn1cnc(-c2ccc(-c3ccc(N4CC[C@@H](NC(C)(C)C)C4)nn3)c(O)c2)cc1=O [Compound 237, 6-(4-{6-[(3R)-3-(tert-butylamino)pyrrolidin-1-yl]pyridazin-3-yl}-3-hydroxyphenyl)-3-methylpyrimidin-4-one]	< 100		100 to 1000				< 100	100 to 1000	
Cn1cnc(-c2ccc(-c3ccc(N4CC[C@H](NC(C)(C)C)C4)nn3)c(O)c2)cc1=O [Compound 236, 6-(4-{6-[(3S)-3-(tert-butylamino)pyrrolidin-1-yl]pyridazin-3-yl}-3-hydroxyphenyl)-3-methylpyrimidin-4-one]	100 to 1000		100 to 1000				100 to 1000	100 to 1000	
COc1cc(-c2ccc(-c3ccc(N4CC[C@@H](N(C)C5CCC5)C4)nn3)c(O)c2)cnn1 [Compound 238, 2-{6-[(3R)-3-[cyclobutyl(methyl)amino]pyrrolidin-1-yl]pyridazin-3-yl}-5-(6-methoxypyridazin-4-yl)phenol]	< 100		100 to 1000				100 to 1000	100 to 1000	
Cc1nnc(-c2ccc(-c3ccc(N4CC[C@@H](NCC5CC5)C4)nn3)c(O)c2)s1 [Compound 416]									IC50 (MYB mRNA; [8]): 100 to 1000 nM; IC50 (SMN2 mRNA): < 100 nM

Continued, in another order:

IC50 (HTT mRNA; [2]) [nM]	IC50 (HTT mRNA; [3]) [nM]	IC50 (MYB mRNA; [4]) [nM]	IC50 (MYB mRNA; [5]) [nM]	IC50 (SMN2 mRNA; Homo sapiens) [nM]	IC50 (Target C mRNA; Homo sapiens) [nM]	SMILES	AC50 (HTT mRNA; [1]) [nM]	AC50 (MYB mRNA; [1]) [nM]	other results
< 100	< 100	< 100	< 100	< 100	< 100	CC(C)(C)N[C@H]1CCN(c2ccc(-c3ccc(-c4cn[nH]c4)cc3O)nn2)C1 [Compound 101, 2-{6-[(3S)-3-(tert-butylamino)pyrrolidin-1-yl]pyridazin-3-yl}-5-(1H-pyrazol-4-yl)phenol]	< 100	< 100	
< 100		100 to 1000				COc1cc(-c2ccc(-c3ccc(N4CC[C@H](N(C)C5CCC5)C4)nn3)c(O)c2)cnn1 [Compound 239]	< 100	100 to 1000	
< 100		100 to 1000				COc1cc(-c2ccc(-c3ccc(N4CC[C@@H](NC5(CF)CC5)C4)nn3)c(O)c2)cnn1 [Compound 242, 2-{6-[(3R)-3-{[1-(fluoromethyl)cyclopropyl]amino}pyrrolidin-1-yl]pyridazin-3-yl}-5-(6-methoxypyridazin-4-yl)phenol]	100 to 1000	100 to 1000	
< 100		100 to 1000				COc1cc(-c2cc(O)c(-c3ccc(N4CC[C@@H](N(C)C(C)(C)C)C4)nn3)cc2F)cnn1 [Compound 235, 2-{6-[(3R)-3-[tert-butyl(methyl)amino]pyrrolidin-1-yl]pyridazin-3-yl}-4-fluoro-5-(6-methoxypyridazin-4-yl)phenol]	< 100	100 to 1000	
< 100		< 100				COc1cc(-c2cc(O)c(-c3ccc(N4CC[C@H](N(C)C(C)(C)C)C4)nn3)cc2F)cnn1 [Compound 234, 2-{6-[(3S)-3-[tert-butyl(methyl)amino]pyrrolidin-1-yl]pyridazin-3-yl}-4-fluoro-5-(6-methoxypyridazin-4-yl)phenol]	< 100	< 100	
